# Columns and labels:
# [1] = target: T1, Cereblon (CRBN) (Homo sapiens, UniProt Q96SW2); assay: TR-FRET displacement of Cy5-thalidomide from CRBN-DDB1; assay type: binding; set-up: 6xHis-CRBN-DDB1 complex; with DDB1
# Target sequence in this assay (Q96SW2 40-442): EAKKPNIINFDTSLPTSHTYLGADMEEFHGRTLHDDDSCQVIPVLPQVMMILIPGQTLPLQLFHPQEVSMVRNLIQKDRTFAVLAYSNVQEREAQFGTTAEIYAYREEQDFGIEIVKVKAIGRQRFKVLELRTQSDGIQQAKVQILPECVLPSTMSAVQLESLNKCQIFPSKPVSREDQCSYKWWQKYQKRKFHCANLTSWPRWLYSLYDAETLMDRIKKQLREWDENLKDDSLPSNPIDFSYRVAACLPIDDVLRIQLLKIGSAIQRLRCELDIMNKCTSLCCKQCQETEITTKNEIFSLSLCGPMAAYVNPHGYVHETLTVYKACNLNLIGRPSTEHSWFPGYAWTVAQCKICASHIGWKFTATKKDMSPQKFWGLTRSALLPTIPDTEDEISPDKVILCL
# Target sequence in this assay (Q16531 whole entry partner): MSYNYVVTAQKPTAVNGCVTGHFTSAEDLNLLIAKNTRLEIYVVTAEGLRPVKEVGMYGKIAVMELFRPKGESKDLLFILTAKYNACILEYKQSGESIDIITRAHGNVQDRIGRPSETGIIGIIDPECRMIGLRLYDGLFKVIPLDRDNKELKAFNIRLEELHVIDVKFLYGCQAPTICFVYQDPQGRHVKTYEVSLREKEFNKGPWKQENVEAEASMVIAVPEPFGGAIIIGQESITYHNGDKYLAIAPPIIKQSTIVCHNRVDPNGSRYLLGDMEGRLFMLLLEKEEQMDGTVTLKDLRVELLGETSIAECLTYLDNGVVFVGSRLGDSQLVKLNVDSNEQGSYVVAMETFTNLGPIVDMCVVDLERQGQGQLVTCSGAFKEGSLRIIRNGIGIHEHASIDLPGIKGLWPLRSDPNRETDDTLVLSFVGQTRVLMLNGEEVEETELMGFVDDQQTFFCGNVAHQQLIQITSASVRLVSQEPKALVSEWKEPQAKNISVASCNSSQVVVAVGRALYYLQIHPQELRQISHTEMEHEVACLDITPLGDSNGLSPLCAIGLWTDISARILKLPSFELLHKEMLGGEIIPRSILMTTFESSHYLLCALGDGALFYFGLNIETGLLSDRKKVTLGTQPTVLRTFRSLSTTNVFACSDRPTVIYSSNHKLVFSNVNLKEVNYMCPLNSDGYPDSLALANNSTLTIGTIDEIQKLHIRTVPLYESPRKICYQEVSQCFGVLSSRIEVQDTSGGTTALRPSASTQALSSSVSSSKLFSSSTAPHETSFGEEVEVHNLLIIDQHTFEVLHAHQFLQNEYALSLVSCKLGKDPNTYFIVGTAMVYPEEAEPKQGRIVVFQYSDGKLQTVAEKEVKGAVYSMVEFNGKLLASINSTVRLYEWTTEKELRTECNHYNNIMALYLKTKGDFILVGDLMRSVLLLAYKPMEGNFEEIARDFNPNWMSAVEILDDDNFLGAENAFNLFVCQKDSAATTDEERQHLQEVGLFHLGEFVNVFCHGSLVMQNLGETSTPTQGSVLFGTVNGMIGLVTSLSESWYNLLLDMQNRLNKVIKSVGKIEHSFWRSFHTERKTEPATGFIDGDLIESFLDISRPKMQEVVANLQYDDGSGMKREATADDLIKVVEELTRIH
# [2] = target: T1, Cereblon (CRBN); assay: cryo-EM structure ([…] Å and […] Å); TR-FRET thalidomide displacement (IC50); FIDA and SEC-MALS; assay type: binding; set-up: 6xHis-CRBN-DDB1 complex (per checker note), TR-FRET thalidomide displacement; not the cryo-EM CRBN 41-442/DDB1ΔBPB homodimer
# Target sequence in this assay (Q96SW2 whole entry): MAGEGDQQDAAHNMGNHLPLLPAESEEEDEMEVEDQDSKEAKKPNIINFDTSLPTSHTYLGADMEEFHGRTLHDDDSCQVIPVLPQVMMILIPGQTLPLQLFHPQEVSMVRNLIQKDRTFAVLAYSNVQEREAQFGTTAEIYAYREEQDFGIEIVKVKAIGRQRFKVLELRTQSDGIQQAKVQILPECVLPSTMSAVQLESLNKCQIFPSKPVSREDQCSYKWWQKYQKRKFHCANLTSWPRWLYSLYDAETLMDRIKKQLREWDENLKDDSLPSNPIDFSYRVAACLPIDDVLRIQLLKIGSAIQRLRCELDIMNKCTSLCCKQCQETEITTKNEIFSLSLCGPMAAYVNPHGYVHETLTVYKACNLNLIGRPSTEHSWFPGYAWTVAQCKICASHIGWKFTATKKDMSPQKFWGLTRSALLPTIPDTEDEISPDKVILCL
# Target sequence in this assay (Q16531 2-1140 partner): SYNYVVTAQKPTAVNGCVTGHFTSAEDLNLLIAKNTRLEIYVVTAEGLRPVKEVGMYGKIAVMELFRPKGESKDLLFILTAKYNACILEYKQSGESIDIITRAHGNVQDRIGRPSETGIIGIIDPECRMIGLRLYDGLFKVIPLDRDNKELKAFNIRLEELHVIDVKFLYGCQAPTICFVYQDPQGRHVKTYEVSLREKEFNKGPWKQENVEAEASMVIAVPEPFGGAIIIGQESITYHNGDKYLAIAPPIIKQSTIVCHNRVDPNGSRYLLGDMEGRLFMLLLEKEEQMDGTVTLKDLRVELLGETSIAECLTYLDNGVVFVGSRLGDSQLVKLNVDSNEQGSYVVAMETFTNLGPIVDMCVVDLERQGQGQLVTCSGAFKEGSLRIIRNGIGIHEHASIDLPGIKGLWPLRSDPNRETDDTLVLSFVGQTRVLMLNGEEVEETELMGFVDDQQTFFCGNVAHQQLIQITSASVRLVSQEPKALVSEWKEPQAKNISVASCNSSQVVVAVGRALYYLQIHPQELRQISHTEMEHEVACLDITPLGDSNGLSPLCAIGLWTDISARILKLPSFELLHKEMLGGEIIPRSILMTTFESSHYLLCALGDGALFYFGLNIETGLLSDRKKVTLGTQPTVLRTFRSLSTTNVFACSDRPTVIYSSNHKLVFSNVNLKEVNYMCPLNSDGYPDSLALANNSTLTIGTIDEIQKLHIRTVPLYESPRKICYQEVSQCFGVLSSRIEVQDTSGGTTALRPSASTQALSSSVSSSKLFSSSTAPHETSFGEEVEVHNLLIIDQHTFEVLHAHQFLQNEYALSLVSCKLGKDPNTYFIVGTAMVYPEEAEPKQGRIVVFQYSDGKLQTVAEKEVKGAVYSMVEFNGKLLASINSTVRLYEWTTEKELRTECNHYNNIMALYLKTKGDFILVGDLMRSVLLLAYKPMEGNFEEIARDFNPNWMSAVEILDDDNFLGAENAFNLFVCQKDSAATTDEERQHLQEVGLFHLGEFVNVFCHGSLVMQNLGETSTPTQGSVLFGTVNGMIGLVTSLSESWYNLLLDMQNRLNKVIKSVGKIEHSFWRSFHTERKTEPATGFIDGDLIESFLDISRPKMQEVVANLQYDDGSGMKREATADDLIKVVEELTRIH
IC50 [1] [nM],IC50 [2] [nM],Compound
60,,O=C1CCC(N2Cc3ccc(N4CCC5(CCN(Cc6ccccc6)CC5)C4)cc3C2=O)C(=O)N1 (centres unmarked) [MRT-30568]
,14,O=C1CCC(N2Cc3ccc(N4CCC5(CCN(C(=O)c6ccccc6)CC5)C4)cc3C2=O)C(=O)N1 (centres unmarked) [MRT-31619]

# — PMC12630686, “A degron-mimicking molecular glue drives CRBN homo-dimerization and degradation” (Nature Communications, 2025)
